We go through four molecules from US12692221B2 (priority 2024, dated 2026).

The target in one test is T1, 5-HT1A (h) (Homo sapiens, UniProt P08908).
T1 construct: expressed in transfected cells; host or cells: HEK-293 cells
T1 sequence (P08908 1-422): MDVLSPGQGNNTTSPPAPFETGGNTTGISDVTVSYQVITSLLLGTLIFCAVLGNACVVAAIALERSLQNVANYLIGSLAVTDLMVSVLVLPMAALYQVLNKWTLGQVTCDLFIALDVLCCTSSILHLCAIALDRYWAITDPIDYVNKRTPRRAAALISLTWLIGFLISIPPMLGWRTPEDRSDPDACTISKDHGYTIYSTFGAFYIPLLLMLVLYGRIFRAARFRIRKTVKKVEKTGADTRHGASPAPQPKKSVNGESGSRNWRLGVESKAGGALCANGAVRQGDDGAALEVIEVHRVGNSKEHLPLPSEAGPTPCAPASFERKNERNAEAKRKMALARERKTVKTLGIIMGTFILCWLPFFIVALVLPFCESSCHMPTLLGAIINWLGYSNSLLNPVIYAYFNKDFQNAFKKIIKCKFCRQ
Nature of the test: Radioligand binding 5-HT1A (h) (agonist radioligand), [^3H]8-OH-DPAT, HEK-293 cells. The procedure: (§1) Methods—Binding Assays: In vitro binding assays were performed using human recombinant receptors expressed in mammalian cell lines. Receptors were expressed in either HEK-293 or CHO cells depending on the target, and assay conditions (radioligand, concentration, nonspecific competitor, temperature, and incubation time) were optimized for each receptor. All assays were conducted in triplicate, and specific binding was quantified by scintillation counting as the detection method for each listed assay.
(§2) Specific binding was expressed as a percentage of control-specific binding, and percent inhibition was calculated using the formula in Ex. 8 above. Half-maximal inhibitory concentrations (IC50) were determined by non-linear regression analysis of the inhibition curves using the Hill equation (see Ex. 8). Inhibition constants (Ki) were calculated using the Cheng-Prusoff equation (see Ex. 8). KD values used in these calculations had been previously established for each receptor under the assay conditions (see Table 6). Data analysis was performed using software developed at Cerep and validated against SigmaPlot 4.0 for Windows.

Another test addresses T2, CB1 (h) (Homo sapiens, UniProt P21554).
T2 construct: expressed in transfected cells; host or cells: Chem-RBL cells
Nature of the test: Radioligand binding CB1 (h) (agonist radioligand), [^3H]CP 55940, Chem-RBL cells.

The next test has as its target T3, V1a (h) (Homo sapiens, UniProt P37288).
T3 construct: expressed in transfected cells; host or cells: CHO cells
Put plainly: Radioligand binding V1a (h) (agonist radioligand), [^3H]AVP, CHO cells. As for the experimental part:
as §1, §2

Another test has as its target T4, 5-HT transporter (h) (Homo sapiens, UniProt P31645).
T4 construct: expressed in transfected cells; host or cells: CHO cells
Put plainly: Radioligand binding 5-HT transporter (h) (antagonist radioligand), [^3H]imipramine, CHO cells. As for the experimental part: as §1, §2

The subject of test [1] is male C57BL/6J mice. Nature of the test: Mouse head-twitch response (HTR) assay, magnetometer. Format: in vivo. To be noted: i.p.; for HTR (head twitch response), in words: doses up to 30 mpk.
The target of a further test is 5-HT2B (Homo sapiens, UniProt P41595). Put plainly: Calcium flux agonist assay, 293T cells. It is filed as cell-based. Set-up: expressed in transfected cells; host or cells: Human Embryonic Kidney (293T) cells, transient. The conditions noted are these: for Emax: HEK-293T, normalized to maximum 5-HT response; for 5-HT2B receptor activation: in words. (In general: Calcium assays in cells follow changes in intracellular calcium, usually with a dye or a luminescent sensor.)
Sequence of 5-HT2B (P41595 whole entry): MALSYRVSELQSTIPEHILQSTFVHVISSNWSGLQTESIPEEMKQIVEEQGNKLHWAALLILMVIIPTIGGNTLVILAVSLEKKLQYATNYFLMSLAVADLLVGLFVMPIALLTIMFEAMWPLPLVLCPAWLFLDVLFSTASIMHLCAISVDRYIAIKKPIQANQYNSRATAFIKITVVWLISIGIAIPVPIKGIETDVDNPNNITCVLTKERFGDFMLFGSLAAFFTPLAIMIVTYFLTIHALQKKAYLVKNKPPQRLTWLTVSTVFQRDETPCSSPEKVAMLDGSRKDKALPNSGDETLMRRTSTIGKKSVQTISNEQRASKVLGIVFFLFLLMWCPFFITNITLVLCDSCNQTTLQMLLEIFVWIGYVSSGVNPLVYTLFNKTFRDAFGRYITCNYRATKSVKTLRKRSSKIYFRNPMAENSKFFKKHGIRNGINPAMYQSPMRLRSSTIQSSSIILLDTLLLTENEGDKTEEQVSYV

For another test, the system named is BZD (central). Nature of the test: Radioligand binding BZD (central) (agonist radioligand), [^3H]flunitrazepam, rat cerebral cortex.
Another test deals with T5, D2S (h) (Homo sapiens, UniProt P14416).
T5 construct: expressed in transfected cells; host or cells: HEK-293 cells
T5 sequence (P14416 1-414 isoform P14416-2): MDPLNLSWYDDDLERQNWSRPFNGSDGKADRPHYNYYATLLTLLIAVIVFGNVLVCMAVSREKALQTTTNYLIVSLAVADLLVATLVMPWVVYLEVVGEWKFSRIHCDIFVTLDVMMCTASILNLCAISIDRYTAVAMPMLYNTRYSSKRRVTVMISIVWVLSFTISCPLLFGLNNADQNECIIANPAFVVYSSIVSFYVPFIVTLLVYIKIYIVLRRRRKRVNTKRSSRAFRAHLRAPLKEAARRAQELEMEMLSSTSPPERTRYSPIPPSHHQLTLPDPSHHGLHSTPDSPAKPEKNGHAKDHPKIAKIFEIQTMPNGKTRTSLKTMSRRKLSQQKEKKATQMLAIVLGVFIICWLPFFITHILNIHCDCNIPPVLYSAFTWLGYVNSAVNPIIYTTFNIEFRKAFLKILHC
Nature of the test: Radioligand binding D2S (h) (agonist radioligand), [^3H]7-OH-DPAT, HEK-293 cells. The procedure: as §1, §2

A further test has as its target T6, AR (h) (Homo sapiens, UniProt P10275, T878A).
T6 construct: human endog; endogenous in cells; host or cells: LNCaP cells
T6 sequence (P10275 1-920 T878A): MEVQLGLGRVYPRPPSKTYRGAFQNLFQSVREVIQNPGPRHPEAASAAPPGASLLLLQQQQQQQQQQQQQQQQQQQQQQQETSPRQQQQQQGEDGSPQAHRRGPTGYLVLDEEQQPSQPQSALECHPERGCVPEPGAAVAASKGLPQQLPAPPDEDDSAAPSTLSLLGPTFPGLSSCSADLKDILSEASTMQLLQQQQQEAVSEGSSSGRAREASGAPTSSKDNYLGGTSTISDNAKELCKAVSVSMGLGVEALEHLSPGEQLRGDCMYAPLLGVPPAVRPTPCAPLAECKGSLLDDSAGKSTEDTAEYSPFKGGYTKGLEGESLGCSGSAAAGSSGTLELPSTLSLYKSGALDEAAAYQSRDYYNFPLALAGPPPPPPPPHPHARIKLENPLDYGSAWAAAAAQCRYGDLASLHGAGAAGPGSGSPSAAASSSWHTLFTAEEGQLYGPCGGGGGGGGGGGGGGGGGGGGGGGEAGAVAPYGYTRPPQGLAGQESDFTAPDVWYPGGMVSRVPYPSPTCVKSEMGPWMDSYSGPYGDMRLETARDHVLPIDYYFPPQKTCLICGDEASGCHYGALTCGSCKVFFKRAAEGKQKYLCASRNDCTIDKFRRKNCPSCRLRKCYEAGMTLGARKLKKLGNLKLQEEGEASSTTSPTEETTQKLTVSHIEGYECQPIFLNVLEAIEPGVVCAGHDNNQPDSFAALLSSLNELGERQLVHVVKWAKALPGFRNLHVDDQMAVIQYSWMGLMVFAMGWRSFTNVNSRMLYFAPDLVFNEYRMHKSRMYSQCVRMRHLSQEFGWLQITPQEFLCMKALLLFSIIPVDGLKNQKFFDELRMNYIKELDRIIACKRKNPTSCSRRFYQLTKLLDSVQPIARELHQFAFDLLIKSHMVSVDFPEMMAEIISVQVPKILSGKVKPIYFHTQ
Nature of the test: Radioligand binding AR (h) (agonist radioligand), [^3H]methyltrienolone, LNCaP cells.

Test [2] concerns male C57BL/6J mice. Put plainly: Motor activity / distance traveled measured in parallel with HTR. It is filed as in vivo, mouse. To be noted: i.p.; for motor activity, in words: magnetometer activity.

SMILES strings stand for the structures. “Also recorded” adds a separate entry of the source.

T3 sequence (P37288 whole entry): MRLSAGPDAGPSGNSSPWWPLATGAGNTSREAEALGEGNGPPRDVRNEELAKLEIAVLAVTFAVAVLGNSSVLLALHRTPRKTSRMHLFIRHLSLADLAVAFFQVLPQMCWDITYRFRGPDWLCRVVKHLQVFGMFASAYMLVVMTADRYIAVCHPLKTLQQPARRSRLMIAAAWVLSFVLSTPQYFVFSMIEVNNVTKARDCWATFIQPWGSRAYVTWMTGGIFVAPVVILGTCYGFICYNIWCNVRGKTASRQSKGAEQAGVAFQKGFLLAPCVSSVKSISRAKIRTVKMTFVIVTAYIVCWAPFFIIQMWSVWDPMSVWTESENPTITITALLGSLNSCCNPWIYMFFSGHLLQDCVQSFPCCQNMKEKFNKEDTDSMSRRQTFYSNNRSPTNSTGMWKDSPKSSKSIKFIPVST
T2 sequence (P21554 whole entry): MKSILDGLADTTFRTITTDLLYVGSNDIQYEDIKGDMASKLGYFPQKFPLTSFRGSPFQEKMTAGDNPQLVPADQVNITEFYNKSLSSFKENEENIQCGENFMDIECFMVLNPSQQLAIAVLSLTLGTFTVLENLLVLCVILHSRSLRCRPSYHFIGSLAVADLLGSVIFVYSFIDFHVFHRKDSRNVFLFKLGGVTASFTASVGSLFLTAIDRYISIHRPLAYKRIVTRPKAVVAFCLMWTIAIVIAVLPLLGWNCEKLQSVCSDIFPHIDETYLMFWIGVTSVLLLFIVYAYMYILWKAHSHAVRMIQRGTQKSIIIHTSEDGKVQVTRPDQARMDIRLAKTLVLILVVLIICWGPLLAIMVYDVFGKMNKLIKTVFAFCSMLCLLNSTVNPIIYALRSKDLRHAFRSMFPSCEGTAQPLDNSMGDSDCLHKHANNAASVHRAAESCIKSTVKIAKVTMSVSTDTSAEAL
T4 sequence (P31645 whole entry): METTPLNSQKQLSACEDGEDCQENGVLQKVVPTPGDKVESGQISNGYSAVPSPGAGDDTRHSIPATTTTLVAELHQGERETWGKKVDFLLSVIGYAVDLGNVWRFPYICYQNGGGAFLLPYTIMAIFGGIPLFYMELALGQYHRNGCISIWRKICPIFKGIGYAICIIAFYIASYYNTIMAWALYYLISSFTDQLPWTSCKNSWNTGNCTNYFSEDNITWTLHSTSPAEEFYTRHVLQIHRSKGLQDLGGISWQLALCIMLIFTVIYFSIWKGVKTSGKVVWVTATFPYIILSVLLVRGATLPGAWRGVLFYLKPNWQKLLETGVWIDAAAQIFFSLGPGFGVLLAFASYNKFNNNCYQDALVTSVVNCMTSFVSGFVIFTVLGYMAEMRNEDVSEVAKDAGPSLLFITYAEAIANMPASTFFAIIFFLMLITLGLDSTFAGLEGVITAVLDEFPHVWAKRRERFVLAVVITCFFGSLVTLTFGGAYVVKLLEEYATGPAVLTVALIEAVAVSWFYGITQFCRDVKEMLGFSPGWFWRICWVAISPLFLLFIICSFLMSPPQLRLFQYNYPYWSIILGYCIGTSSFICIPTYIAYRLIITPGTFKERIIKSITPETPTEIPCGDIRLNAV

Turning to `COCc1cc(CCN)c(O)cc1CC(C)C` [2CiBu-2OH-5MM, 2-(2-aminoethyl)-5-isobutyl-4-(methoxymethyl)phenol], the “Mean Percent Inhibition of Control Specific Binding” value (from here on “Mean Percent Inhibition”) on 5-HT1A (h) is 34.8%; on CB1 (h) it was −1.9%; on V1a (h), 4.8%; on 5-HT transporter (h), 15.0%; in the test with BZD (central) it was 8.3%; on D2S (h) it was 46.6%. Further, at AR (h), the “Mean Percent Inhibition” value is recorded as −9.9%. For the same molecule, in the test with male C57BL/6J mice [1], the “HTR (head twitch response), in words” value is on record as “did not produce meaningful HTR across the tested dose range”. On 5-HT2B (calcium flux, 5-HT2B), the Emax is 2.64%. For the same molecule, the “Potency (EC50)” value on 5-HT2B (calcium flux, 5-HT2B) was “Unstable”. In addition, the 5-HT2B receptor activation result on 5-HT2B (calcium flux) is reported as “unexpectedly reduced 5-HT2B receptor activation”.
`COCCc1cc(CCN)c(OC)cc1Br` [Compound 2CB-5ME, reference compound]: the “Mean Percent Inhibition” value at 5-HT1A (h) is 98.2%; at CB1 (h), 4.0%; at V1a (h) it was 11.2%; at 5-HT transporter (h), 8.6%; in the test on BZD (central) it was −3.0%; on D2S (h), 83.0%. Moreover, the “Mean Percent Inhibition” value at AR (h) is recorded as −7.7%. In addition, the “HTR (head twitch response), in words” value in the test with male C57BL/6J mice [1] is on record as “did not produce statistically significant changes in HTR”. The “motor activity, in words” value in the test with male C57BL/6J mice [2] is given as “motor suppression reaching statistical significance at 30 mpk”.
Regarding `COCc1cc(CCN)c(OC)cc1Br` [Compound 2CB-5MM, 2-(4-bromo-2-methoxy-5-(methoxymethyl)phenyl)ethan-1-amine], the “Mean Percent Inhibition” value at 5-HT1A (h) is 95.1%; on CB1 (h), −10.4%; on V1a (h), 5.5%; at 5-HT transporter (h) it was −1.3%; in the test with BZD (central), −1.8%; at D2S (h), 89.4%. The “Mean Percent Inhibition” value at AR (h) is given as −9.2%. In addition, the “HTR (head twitch response), in words” value with male C57BL/6J mice [1] is “did not elicit a significant HTR at any tested dose”. Further, the EC50 on 5-HT2B was determined as 23.4 nM. At 5-HT2B (calcium flux, 5-HT2B), the Emax turned out to be 94%. Also, the “Distance traveled (locomotor activity), in words” value in the test with male C57BL/6J mice [2] (0.03-30 mpk, over 30 minutes) is “remained consistent across doses”.
As to `COCc1cc(CCN)c(OC)cc1CC(C)C` [Compound 2CiBu-5MM, 2-[4-isobutyl-2-methoxy-5-(methoxymethyl)phenyl]ethanamine], the “Mean Percent Inhibition” value at 5-HT1A (h) is reported as 76.5%; at CB1 (h), −5.6%; on V1a (h), 5.3%; on 5-HT transporter (h), 4.9%; with BZD (central), 6.6%; on D2S (h), 12.9%. Besides, the “Mean Percent Inhibition” value at AR (h) amounted to 3.0%. Further, the “ED50 based on HTR counts” value in the test with male C57BL/6J mice [1] (HTR counts summed over a 30-60 min interval) turned out to be 5.926 mpk. Also, the “HTR (head twitch response), in words” value with male C57BL/6J mice [1] is recorded as “subtle suppression of HTR during the first 15 min followed by a rebound in HTR counts during the last 30 min segment; also recorded: HTR counts remained near baseline throughout the observation period; also recorded: overall neutral effect compared to vehicle HTR occurrences”. In addition, on 5-HT2B, the EC50 turned out to be 497 nM. The maximum response (Emax) on 5-HT2B (calcium flux, 5-HT2B) was 45.7%. The 5-HT2B receptor activation entry at 5-HT2B (calcium flux) was “unexpectedly reduced 5-HT2B receptor activation”. For the same molecule, the “motor activity ID50” value in the test with male C57BL/6J mice [2] is recorded as > 3 mpk. Moreover, the “motor activity, in words” value in the test with male C57BL/6J mice [2] is “statistically significant suppression of motor activity at the two highest doses tested of 10 and 30 mpk”.

For orientation: Emax means the maximal effect, on the per cent scale that the assay sets. As a reminder, the EC50 is the concentration at which the effect is half-maximal.
